Measurements taken from patent US20170008928A1, “NOVEL PEPTIDES AND PEPTIDE DERIVATIVES AND USES THEREOF” (Novo Nordisk A/S, priority 2015, published 2017).
Read-outs that look alike come from different tables or passages of the source. Starred links: 1 amine or outer side, 2 acyl side, 3 side chain; linkers in the order of their positions; H or OH if unused. Non-standard residues stand in square brackets, D forms with d. Residues, ends and D or L forms follow the SMILES beside them. *: point of attachment. Phe(4-CH2SO3H) = N[C@@H](Cc1ccc(CS(=O)(=O)O)cc1)C(=O)O; sY = N[C@@H](Cc1ccc(OS(=O)(=O)O)cc1)C(=O)O; C18 diacid = O=C(O)CCCCCCCCCCCCCCCCC(=O)*; γGlu = O=C(O)[C@H](CCC(=O)[*:2])N[*:1]; 2Nal = N[C@@H](Cc1ccc2ccccc2c1)C(=O)O; NMeF = CN[C@@H](Cc1ccccc1)C(=O)O; dNMeD = CN[C@H](CC(=O)O)C(=O)O; Nle = CCCC[C@H](N)C(=O)O; AEEA = NCCOCCOCC(=O)O

Experiments:
[1] = target: T1, human cholecystokinin-2 receptor (CCK-2R) (Homo sapiens, UniProt P32239); assay: In vitro receptor binding to CCK-2R, SPA displacement of [125I]-CCK-8s from plasma membranes
T1 construct: host or cells: 1321-N1 cells (plasma membranes prepared by Evotec AG Hamburg)
T1 sequence (P32239 1-447): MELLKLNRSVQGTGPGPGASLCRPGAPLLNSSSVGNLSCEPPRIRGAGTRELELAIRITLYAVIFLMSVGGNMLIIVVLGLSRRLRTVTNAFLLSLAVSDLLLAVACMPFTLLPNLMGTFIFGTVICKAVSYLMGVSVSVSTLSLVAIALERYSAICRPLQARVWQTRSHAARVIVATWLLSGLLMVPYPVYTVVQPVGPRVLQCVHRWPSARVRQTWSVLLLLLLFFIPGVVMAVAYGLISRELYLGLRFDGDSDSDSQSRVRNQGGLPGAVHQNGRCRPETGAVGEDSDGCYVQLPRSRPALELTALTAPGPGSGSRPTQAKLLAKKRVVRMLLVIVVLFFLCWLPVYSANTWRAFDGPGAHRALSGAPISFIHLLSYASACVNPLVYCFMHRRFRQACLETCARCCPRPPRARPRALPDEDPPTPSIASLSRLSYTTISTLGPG
Procedure: (§1) The in vitro binding affinity is a measure of the strength of attraction between a receptor and its ligand.
(§2) Displacement of radio ligand was measured as reduction in light emission from SPA beads.
(§3) The cells used in these assays were 1321-N1 cells stably expressing the CCK-1R or the CCK-2R (Perkin Elmer product numbers ES-530-A and ES-531-A, respectively see www.perkinelmer.com/Catalog/Product/ID/ES-530-A or -ES-531-A, respectively).
(§4) The cells were cultured in an incubator (95% RH (relative humidity), 5% (of standard atmospheric pressure) CO2, 37° C.) in cell culture medium (DMEM (Lonza catalogue BE-12-604F/U1), with 10% (v/v) Foetal Calf Serum (FCS, Gibco catalogue 16140-071), 1% (w/w) Sodium pyruvate (Gibco catalogue 11360-039), 500 μg/ml Geneticin® (G418) (Gibco catalogue 10131-027), 25 μg/ml Zeocin™ (Invitrogen catalogue R250-05), 1% (w/w) Pen/Strep (Gibco catalogue 15140-122)).
(§5) Plasma membranes were prepared by Evotec AG Hamburg by use of the ParrBomb (#4635, Parr Instrument Company). Cells were lysed with a lysis buffer (50 mM Tris, 2.5 mM EDTA, pH7) with added protease inhibitors (Complete Proteaseinhibitors EDTA-free (#05056489001, Roche), 1 tablet per 50 mL lysis buffer). The membrane fraction was separated by centrifugation. First, the cell lysate was centrifuged at 1000×g for 10 minutes at 4° C. The pellet was discarded and the supernatant was then centrifuged at 100.000×g for 30 minutes at 4° C. The supernatant was discarded and the pellet was re-suspended in 1 ml/5×10^8 cells ice cold membrane buffer (50 mM Tris, 320 mM Sucrose and Complete Proteaseinhibitors EDTA-free (#05056489001, Roche); pH7.4) and homogenised with dounce homogeniser. The protein concentration was determined using the Pierce™ BCA Protein Assay Kit according to kit manual, and the membrane preparation was adjust to the desired protein concentration with membrane buffer and aliquoted into pre-cooled tubes, snap-frozen in liquid nitrogen, and stored at −80° C.
(§6) CCK receptor binding assays were performed in 96-well Optiplates (Cat #6005290, PerkinElmer, Waltham, Mass., USA) in a total volume of 200 μl per well. CCK derivatives in 80% DMSO stock solutions of 800 μM were serially diluted […] in assay buffer (50 mM Tris/HCl, 4.5 mM MgCl2, […], 0.02% Tween 20, 0.25% ovalbumin, 0.1% pluronic F-68, pH 7.4) to final assay concentrations ranging from 10^−5 M (ten μM) to 10^−12 M (one pM).
(§7) Fifty μl of reference or test compounds were added to the Optiplates (using technical duplicates, i.e. two wells of each sample, one data point being the average of two wells), followed by addition of 150 μl of the mixture of SPA bead, radio ligand, and plasma membrane. The plates were sealed and incubated in the dark at +22° C. for 2 hours on a IKA MTS plate shaker (IKA-Werke D-79219 Staufen) set at 300 rpm and thereafter centrifuged at 1500 rpm for 10 minutes in a Heraeus Multifuge 3s centrifuge. SPA bead light emission was measured in a TopCount NXT (PerkinElmer) for 2 min/well after a delay of 60 min.
(§8) As a measure of compound affinity, calculations were performed in order to determine the half maximal inhibitory concentration (the IC50 value).
(§9) The data from the TopCounter were given as counts per minute (CPM). The CPM was plotted as a function of the concentration of compound. Dose-response curves were obtained, and IC50 values were calculated, by a nonlinear three-parameter logistic equation (log(agonist) vs response) with hillslope=−1, and shared top and bottom using the software programme GraphPad Prism v 6.0 (Graph Pad software, La Jolla, Calif., USA). The highest dose tested was 10^−5 M (1×10^7 pM).
(§10) The preference of a specific compound for the CCK-1 receptor, or the CCK-1R selectivity, may be defined as IC50 (CCK-2R)/IC50 (CCK-1R).
(§11) A minimum of three biological replicates was measured for each test compound on separate assay plates.

[2] = target: T2, human cholecystokinin-1 receptor (CCK-1R) (Homo sapiens, UniProt P32238); assay: In vitro receptor binding to CCK-1R, SPA displacement of [125I]-CCK-8s from plasma membranes
T2 construct: host or cells: 1321-N1 cells
T2 sequence (P32238 1-428): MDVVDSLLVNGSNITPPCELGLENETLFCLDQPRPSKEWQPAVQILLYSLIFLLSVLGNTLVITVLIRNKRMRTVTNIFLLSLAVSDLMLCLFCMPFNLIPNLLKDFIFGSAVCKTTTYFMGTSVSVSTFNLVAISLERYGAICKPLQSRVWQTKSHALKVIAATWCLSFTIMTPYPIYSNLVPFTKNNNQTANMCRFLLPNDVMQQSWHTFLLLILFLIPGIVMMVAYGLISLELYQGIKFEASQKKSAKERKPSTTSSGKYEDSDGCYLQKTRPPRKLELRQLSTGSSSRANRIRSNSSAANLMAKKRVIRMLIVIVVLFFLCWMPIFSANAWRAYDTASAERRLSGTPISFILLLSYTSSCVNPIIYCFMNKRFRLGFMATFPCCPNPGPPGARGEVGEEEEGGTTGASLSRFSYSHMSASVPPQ
Procedure: as §1, §2, §3, §4, §5, §6, §7, §8, §9, §10, §11

[3] = target: T1, human cholecystokinin-2 receptor (CCK-2R); assay: In vitro potency on CCK-2R, whole cell functional assay (IP1 accumulation, IP-One HTRF); type: cell-based
[4] = displacement of [125I]-CCK-8s, plasma membranes of 1321-N1 cells expressing CCK-2R, highest dose tested 1×10^7 pM, read-out: IC50 (CCK-2R)
[5] = displacement of [125I]-CCK-8s, plasma membranes of 1321-N1 cells expressing CCK-1R, read-out: IC50 (CCK-1R)

Compound | IC50 [1, 4] | IC50 [2, 5] | IC50 [1] | IC50 [2] | also measured
CC[C@H](C)[C@H](NC(=O)[C@H](Cc1c[nH]c2ccccc12)NC(=O)CNC(=O)[C@H](CC(C)C)NC(=O)[C@H](Cc1ccc(OS(=O)(=O)O)cc1)NC(=O)[C@H](CC(=O)O)NC(=O)COCCOCCNC(=O)COCCOCCNC(=O)CC[C@H](NC(=O)CCCCCCCCCCCCCCCCC(=O)O)C(=O)O)C(=O)N(C)[C@H](CC(=O)O)C(=O)N(C)[C@@H](Cc1ccccc1)C(N)=O [Example 10, 2-[2-[2-[[2-[2-[2-[[(4S)-4-Carboxy-4-(17-carboxyheptadecanoylamino)butanoyl]amino]ethoxy]ethoxy]acetyl]amino]ethoxy]ethoxy]acetyl-Asp-sTyr-Leu-Gly-Trp-Ile-DMeAsp-MePhe-amide] ({C18 diacid-γGlu-AEEA-AEEA}-D[sY]LGWI[dNMeD][NMeF]-NH2) | – | – | 2300 nM | 0.1 nM | –
CC(C)C[C@H](NC(=O)[C@H](Cc1ccc(OS(=O)(=O)O)cc1)NC(=O)[C@H](CC(=O)O)NC(=O)COCCOCCNC(=O)COCCOCCNC(=O)CC[C@H](NC(=O)CCCCCCCCCCCCCCCCC(=O)O)C(=O)O)C(=O)NCC(=O)N[C@@H](Cc1c[nH]c2ccccc12)C(=O)N[C@@H](CCC(N)=O)C(=O)N(C)[C@H](CC(=O)O)C(=O)N(C)[C@@H](Cc1ccccc1)C(N)=O [Example 11, 2-[2-[2-[[2-[2-[2-[[(4S)-4-Carboxy-4-(17-carboxyheptadecanoylamino)butanoyl]amino]ethoxy]ethoxy]acetyl]amino]ethoxy]ethoxy]acetyl-Asp-sTyr-Leu-Gly-Trp-Gln-DMeAsp-MePhe-amide] ({C18 diacid-γGlu-AEEA-AEEA}-D[sY]LGWQ[dNMeD][NMeF]-NH2) | – | – | > 10000 nM | 0.084 nM | EC50 [3]: > 1000 nM
CCCC[C@H](NC(=O)[C@H](Cc1ccc(CS(=O)(=O)O)cc1)NC(=O)[C@@H](CC(=O)O)NC(=O)COCCOCCNC(=O)COCCOCCNC(=O)CC[C@H](NC(=O)CCCCCCCCCCCCCCCCC(=O)O)C(=O)O)C(=O)NCC(=O)N[C@@H](Cc1c[nH]c2ccccc12)C(=O)N[C@@H](CCCC)C(=O)N(C)[C@H](CC(=O)O)C(=O)N(C)[C@@H](Cc1ccccc1)C(N)=O [Example 25, 2-[2-[2-[[2-[2-[2-[[(4S)-4-Carboxy-4-(17-carboxyheptadecanoylamino)butanoyl]amino]ethoxy]ethoxy]acetyl]amino]ethoxy]ethoxy]acetyl-DAsp-Phe(4-sulfomethyl)-Nle-Gly-Trp-Nle-DMeAsp-MePhe-amide] ({C18 diacid-γGlu-AEEA-AEEA}-[dD][Phe(4-CH2SO3H)][Nle]GW[Nle][dNMeD][NMeF]-NH2) | > 10000 nM | 0.072 nM | – | – | EC50 ([3]; 1321-N1 cells stably expressing CCK-2R, IP1 accumulation, highest dose tested 1×10^6 pM, read-out: EC50 (CCK-2R)): > 1000 nM
CCCC[C@H](NC(=O)[C@H](Cc1c[nH]c2ccccc12)NC(=O)CNC(=O)[C@H](CC(C)C)NC(=O)[C@H](Cc1ccc(OS(=O)(=O)O)cc1)NC(=O)[C@H](CC(=O)O)NC(=O)COCCOCCNC(=O)COCCOCCNC(=O)CC[C@H](NC(=O)CC[C@H](NC(=O)CCCCCCCCCCCCCCCCC(=O)O)C(=O)O)C(=O)O)C(=O)N(C)[C@H](CC(=O)O)C(=O)N(C)[C@@H](Cc1ccccc1)C(N)=O [Example 28, 2-[2-[2-[[2-[2-[2-[[(4S)-4-Carboxy-4-[[(4S)-4-carboxy-4-(17-carboxyheptadecanoylamino)butanoyl]amino]butanoyl]amino]ethoxy]ethoxy]acetyl]amino]ethoxy]ethoxy]acetyl-Asp-sTyr-Leu-Gly-Trp-Nle-DMeAsp-MePhe-amide] | – | 0.1 nM | – | – | –

Further lines, with some results ahead:

IC50 [1, 4] | IC50 [2, 5] | Compound | IC50 [1] | IC50 [2] | also measured
– | 0.14 nM | CCCC[C@H](NC(=O)[C@H](Cc1c[nH]c2ccccc12)NC(=O)CNC(=O)[C@H](CC(C)C)NC(=O)[C@H](Cc1ccc(OS(=O)(=O)O)cc1)NC(=O)[C@H](CC(=O)O)NC(=O)COCCOCCNC(=O)COCCOCCNC(=O)CC[C@H](NC(=O)CCCCCCCCCCCCCCCCC(=O)O)C(=O)O)C(=O)N(C)[C@H](CC(=O)O)C(=O)N[C@@H](Cc1ccc2ccccc2c1)C(N)=O [Example 50, 2-[2-[2-[[2-[2-[2-[[(4S)-4-Carboxy-4-(17-carboxyheptadecanoylamino)butanoyl]amino]ethoxy]ethoxy]acetyl]amino]ethoxy]ethoxy]acetyl-Asp-sTyr-Leu-Gly-Trp-Nle-DMeAsp-2Nal-amide] ({C18 diacid-γGlu-AEEA-AEEA}-D[sY]LGW[Nle][dNMeD][2Nal]-NH2) | – | – | –
480 nM | 0.049 nM | CCCC[C@H](NC(=O)[C@H](Cc1c[nH]c2ccccc12)NC(=O)CNC(=O)[C@H](CC(C)C)NC(=O)[C@H](Cc1ccc(OS(=O)(=O)O)cc1)NC(=O)[C@H](CCC(=O)O)NC(=O)COCCOCCNC(=O)COCCOCCNC(=O)CC[C@H](NC(=O)CCCCCCCCCCCCCCCCC(=O)O)C(=O)O)C(=O)N(C)[C@H](CC(=O)O)C(=O)N[C@@H](Cc1ccccc1)C(N)=O [Example 52, 2-[2-[2-[[2-[2-[2-[[(4S)-4-Carboxy-4-(17-carboxyheptadecanoylamino)butanoyl]amino]ethoxy]ethoxy]acetyl]amino]ethoxy]ethoxy]acetyl-Glu-sTyr-Leu-Gly-Trp-Nle-DMeAsp-Phe-amide] ({C18 diacid-γGlu-AEEA-AEEA}-E[sY]LGW[Nle][dNMeD]F-NH2) | – | – | –
